{"source": "paper PMC10817917", "about": "“Alkyl deoxyglycoside-polymyxin combinations against critical priority carbapenem-resistant gram-negative bacteria” (Scientific Reports, 2024)", "key": {"E. cloacae CQ1941": {"test_system": "E. cloacae CQ1941", "experiment": "Broth microdilution MIC/MBC, glycosides with or without polymyxins", "format": "cell-based", "settings": "compound + colistin"}, "HEK-293T cells": {"test_system": "HEK-293T cells", "experiment": "Resazurin cell viability assay (cytotoxicity)", "format": "cell-based, human", "settings": "Homo sapiens, HEK-293T, 72 h, read-out: IC50", "method_in_brief": "(§1)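 HEK-293T and Caco-2 cells (1.5 × 10^4/well, RPMI 1640 with 10% FBS) exposed 72 h at 37 °C to glycosides at final 100 to 10 µM, alone or with PMB or colistin at final 0.5, 0.25 or 0.125 µg/mL; max DMSO 0.33%. Resazurin added 4 h, read 570/600 nm; IC50 from dose-response fits, mean ± SD of three replicates.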"}, "Caco-2 cells": {"test_system": "Caco-2 cells", "experiment": "Resazurin cell viability assay (cytotoxicity)", "format": "cell-based, human", "settings": "Homo sapiens, Caco-2, 72 h, read-out: IC50", "method_in_brief": "as §1"}, "K. pneumoniae CQ1942": {"test_system": "K. pneumoniae CQ1942", "experiment": "Broth microdilution MIC, glycosides with or without polymyxins", "format": "cell-based, Klebsiella pneumoniae", "settings": "for MIC: Klebsiella pneumoniae, CQ1942"}, "P. aeruginosa CQ4924": {"test_system": "P. aeruginosa CQ4924", "experiment": "Broth microdilution MIC, glycosides with or without polymyxins", "format": "cell-based, Pseudomonas aeruginosa", "settings": "for MIC: Pseudomonas aeruginosa, CQ4924"}, "[1]": {"settings": "tested alone (no polymyxin adjuvant)"}, "[2]": {"settings": "alone, read-out: MICA (MIC of each compound individually)"}, "[3]": {"settings": "combination with the lowest FICI"}, "[4]": {"settings": "compound + colistin, lowest FICI"}}, "note": "Where two headings read alike, the source gives them in different places.", "data": [{"compound": "CCCCCCCCCCCCO[C@H]1C[C@H](O)[C@@H](O)[C@H](C)O1", "note": "[Compound 3, dodecyl 2,6-dideoxy-α-L-arabino-hexopyranoside]", "values": [{"measurement": "Interpretation (of FICI)", "setting": "E. cloacae CQ1941", "value": "Additive (from 0.5 to 1.0 were additive)"}, {"measurement": "FICI", "setting": "E. cloacae CQ1941; lowest FICI", "value": 0.51}, {"measurement": "IC50", "setting": "HEK-293T cells; Colistin 0.5 μg/mL", "value": "79.3 ± 2", "unit": "µM"}, {"measurement": "IC50", "setting": "HEK-293T cells; No polymyxin", "value": "72.5 ± 2.51", "unit": "µM"}, {"measurement": "IC50", "setting": "HEK-293T cells; PMB 0.5 μg/mL", "value": "75.1 ± 2.7", "unit": "µM"}, {"measurement": "IC50", "setting": "HEK-293T cells; [1]", "value": 22.9, "unit": "µg/mL"}, {"measurement": "IC50", "setting": "Caco-2 cells; Colistin 0.25 μg/mL", "value": "69.2 ± 1.25", "unit": "µM"}, {"measurement": "IC50", "setting": "Caco-2 cells; Colistin 0.5 μg/mL", "value": "68.2 ± 2.12", "unit": "µM"}, {"measurement": "IC50", "setting": "Caco-2 cells; No polymyxin", "value": "68.9 ± 2.21", "unit": "µM"}, {"measurement": "IC50", "setting": "Caco-2 cells; [1]", "value": 21.8, "unit": "µg/mL"}, {"measurement": "MIC of colistin in combination with the compound", "setting": "K. pneumoniae CQ1942; Cpd conc. 0.4 μg/mL, strain E", "value": 0.5, "unit": "µg/mL"}, {"measurement": "MIC of colistin in combination with the compound", "setting": "K. pneumoniae CQ1942; Cpd conc. 0.8 μg/mL, strain E", "value": 0.5, "unit": "µg/mL"}, {"measurement": "MIC of colistin in combination with the compound", "setting": "K. pneumoniae CQ1942; Cpd conc. 3.125 μg/mL, strain E", "value": 0.25, "unit": "µg/mL"}, {"measurement": "MIC of colistin in combination with the compound", "setting": "K. pneumoniae CQ1942; Cpd conc. 6.25 μg/mL, strain E", "value": 0.25, "unit": "µg/mL"}, {"measurement": "MIC of colistin in combination with the compound", "setting": "K. pneumoniae CQ1942; Cpd conc. 12.5 μg/mL, strain E", "value": 0.25, "unit": "µg/mL"}, {"measurement": "MIC of colistin in combination with the compound", "setting": "K. pneumoniae CQ1942; Cpd conc. […], strain E", "value": 0.5, "unit": "µg/mL"}, {"measurement": "MIC", "setting": "K. pneumoniae CQ1942; agent alone, no adjuvant (polymyxin conc. 0), strain E, read-out: MIC", "value": "> 100", "unit": "µg/mL"}, {"measurement": "MIC", "setting": "K. pneumoniae CQ1942; [2]", "value": "> 100", "unit": "µg/mL"}, {"measurement": "MIC of compound in combination with PMB", "setting": "K. pneumoniae CQ1942; PMB 0.25 μg/mL, strain E", "value": "> 100", "unit": "µg/mL"}, {"measurement": "MIC of compound in combination with PMB", "setting": "K. pneumoniae CQ1942; PMB 0.5 μg/mL, strain E", "value": "≤ 0.1", "unit": "µg/mL"}, {"measurement": "MIC of compound in combination with colistin", "setting": "K. pneumoniae CQ1942; colistin 0.06 μg/mL, strain E", "value": "> 100", "unit": "µg/mL"}, {"measurement": "MIC of compound in combination with colistin", "setting": "K. pneumoniae CQ1942; colistin 0.125 μg/mL, strain E", "value": "> 100", "unit": "µg/mL"}, {"measurement": "MIC of compound in combination with colistin", "setting": "K. pneumoniae CQ1942; colistin 0.25 μg/mL, strain E", "value": 3.1, "unit": "µg/mL"}, {"measurement": "MIC of compound in combination with colistin", "setting": "K. pneumoniae CQ1942; colistin 0.5 μg/mL, strain E", "value": "≤ 0.1", "unit": "µg/mL"}, {"measurement": "MICA(A + B) (MIC of compound in combination with colistin)", "setting": "K. pneumoniae CQ1942; [3]", "value": 3.125, "unit": "µg/mL"}, {"measurement": "MICB(A + B) (MIC of colistin in combination with compound)", "setting": "K. pneumoniae CQ1942; [3]", "value": 0.25, "unit": "µg/mL"}, {"measurement": "Interpretation (of FICI)", "setting": "K. pneumoniae CQ1942; compound + colistin", "value": "Additive (from 0.5 to 1.0 were additive)"}, {"measurement": "FICI", "setting": "K. pneumoniae CQ1942; [4]", "value": 0.52}, {"measurement": "MIC of colistin in combination with the compound", "setting": "P. aeruginosa CQ4924; Cpd conc. 0.4 μg/mL, strain H", "value": "> 0.5", "unit": "µg/mL"}, {"measurement": "MIC of colistin in combination with the compound", "setting": "P. aeruginosa CQ4924; Cpd conc. 0.8 μg/mL, strain H", "value": "> 0.5", "unit": "µg/mL"}, {"measurement": "MIC of colistin in combination with the compound", "setting": "P. aeruginosa CQ4924; Cpd conc. 3.125 μg/mL, strain H", "value": 0.5, "unit": "µg/mL"}, {"measurement": "MIC of colistin in combination with the compound", "setting": "P. aeruginosa CQ4924; Cpd conc. 6.25 μg/mL, strain H", "value": 0.5, "unit": "µg/mL"}, {"measurement": "MIC of colistin in combination with the compound", "setting": "P. aeruginosa CQ4924; Cpd conc. 12.5 μg/mL, strain H", "value": 0.5, "unit": "µg/mL"}, {"measurement": "MIC of colistin in combination with the compound", "setting": "P. aeruginosa CQ4924; Cpd conc. […], strain H", "value": "> 0.5", "unit": "µg/mL"}, {"measurement": "MIC of compound in combination with PMB", "setting": "P. aeruginosa CQ4924; PMB 0.25 μg/mL, strain H", "value": "> 100", "unit": "µg/mL"}, {"measurement": "MIC of compound in combination with PMB", "setting": "P. aeruginosa CQ4924; PMB 0.5 μg/mL, strain H", "value": "> 100", "unit": "µg/mL"}, {"measurement": "MIC", "setting": "P. aeruginosa CQ4924; agent alone, no adjuvant (polymyxin conc. 0), strain H, read-out: MIC", "value": "> 100", "unit": "µg/mL"}, {"measurement": "MIC", "setting": "P. aeruginosa CQ4924; [2]", "value": "> 100", "unit": "µg/mL"}, {"measurement": "MIC of compound in combination with colistin", "setting": "P. aeruginosa CQ4924; colistin 0.06 μg/mL, strain H", "value": "> 100", "unit": "µg/mL"}, {"measurement": "MIC of compound in combination with colistin", "setting": "P. aeruginosa CQ4924; colistin 0.125 μg/mL, strain H", "value": "> 100", "unit": "µg/mL"}, {"measurement": "MIC of compound in combination with colistin", "setting": "P. aeruginosa CQ4924; colistin 0.25 μg/mL, strain H", "value": "> 100", "unit": "µg/mL"}, {"measurement": "MIC of compound in combination with colistin", "setting": "P. aeruginosa CQ4924; colistin 0.5 μg/mL, strain H", "value": 3.1, "unit": "µg/mL"}, {"measurement": "MICA(A + B) (MIC of compound in combination with colistin)", "setting": "P. aeruginosa CQ4924; [3]", "value": 3.125, "unit": "µg/mL"}, {"measurement": "MICB(A + B) (MIC of colistin in combination with compound)", "setting": "P. aeruginosa CQ4924; [3]", "value": 0.5, "unit": "µg/mL"}, {"measurement": "Interpretation (of FICI)", "setting": "P. aeruginosa CQ4924; compound + colistin", "value": "Additive (from 0.5 to 1.0 were additive)"}, {"measurement": "FICI", "setting": "P. aeruginosa CQ4924; [4]", "value": 0.52}]}]}
